Positions of bridges follow the written chain, without caps; N, C: chain ends. No end group written: not given here.
Key:
Assay type in all cases: cell-based, human
[1] = tested on: hMSC cells; assay: Alkaline phosphatase (AP) in cells contacted with peptide-displaying clones (tertiary screen); conditions: for induction of osteoblastic marker enzyme alkaline phosphatase: additional screening of clones
Experimental: A tertiary screen of the identified peptides was performed. The effect of each peptide on target cells was determined by measuring amounts of osteoblastic marker alkaline phosphatase (AP). Clonally purified individual isolates, or sibling pools of multiple isolates, were tested using the secondary and tertiary screens.
Individual preparations of each bacterial peptide-bearing clone to be tested were induced to express peptides, and were heat-devitalized in boiled water, to kill the peptide-displaying bacteria. Fifty microliters of heat-devitalized bacterial suspension was poured into each well of a 96-well plate containing agar, and the plate was centrifuged at 2000 rpm to embed bacteria in the surface of the agar.
Clones were further tested to quantify amount of stimulation of alkaline phosphatase (AP) activity in contacted cells. […] DNA from this clone that stimulated AP expression was isolated and was sequenced, and the DNA sequence was used to obtain amino acid sequence VFLRGNNSGGRS (SEQ ID NO: 2). This amino acid sequence appears not to have been previously reported.
Osteoinductive peptides with activity that stimulated osteoblasts include: VFLRGNNSGGRS (SEQ ID NO:2), GKIHRHRGQAVE (SEQ ID NO: 3), HIRQMPVRAGLS (SEQ ID NO: 4), RQGVGSNGXIQK (SEQ ID NO: 5), ESHCLLGISCVL (SEQ ID NO: 6), QQLQQNVILET (SEQ ID NO: 7), RSKLVEFRTTG (SEQ ID NO: 8), RNWRMSRRGGM (SEQ ID NO: 9), CVRGRGRMAGSV (SEQ ID NO: 10), ITRGELATVRRS (SEQ ID NO: 11), LRLGVGMGRTC (SEQ ID NO: 12), ERFAGNRNQLQ (SEQ ID NO: 13), GGLGSVGWYWA (SEQ ID NO: 14), GCGKERGRRALK (SEQ ID NO: 15), GQERLWAFRWVP (SEQ ID NO: 16), RGVLRVGTGRSE (SEQ ID NO: 17), ITRGELATVRRS (SEQ ID NO: 18), RPALRLGLIGPS (SEQ ID NO: 19), TRTSVDAPIRX (SEQ ID NO: 20), SKALRGVGSVAS (SEQ ID NO: 21), and RRGQDRGHEPK (SEQ ID NO: 22).

[2] = tested on: MG63 cells; assay: Cellular ATP in MG63 cells on streptavidin-coated wells treated with biotinylated peptide; conditions: MG63 1,000 cells/well, 120 hours after seeding, 50-3200 pmole/well, FIG. 4, versus biotin only
Experimental: (§1) Cell growth and osteogenic inducing potential of each of the preparations of the biotinylated linear and the cyclic peptides was determined. The osteogenic potential of each peptide was analyzed by quantifying cellular ATP and alkaline phosphatase (AP) activity of osteoblast cells.
(§2) Peptides were added to the wells in titrated amounts (50 pmole/well, 100 pmole/well, 200 pmole/well, 400 pmole/well, 800 pmole/well, 1600 pmole/well, or 3200 pmole/well) and were immobilized on streptavidin-coated plastic well plates (384 wells per plate). The biotin-binding capacity of the plates was 50 pmole/well. Each well was washed to remove unbound biotinylated peptides. […] MG63 cells (1,000 cells/well) were inoculated into each well.
(§3) ATP (RFU/well) was measured at each of 24 hours and 120 hours after cells were seeded, and alkaline phosphatase (AP, RFU standardized by cell number) activity was measured 120 hours after cells were seeded.

[3] = tested on: MG63 cells; assay: Alkaline phosphatase activity of MG63 cells on streptavidin-coated wells treated with biotinylated peptide; conditions: MG63 1,000 cells/well, 120 hours after seeding, 50-3200 pmole/well, FIG. 5, versus biotin only
Experimental: as §1, §2, §3

Substance | induction of osteoblastic marker enzyme alkaline phosphatase [1] | also measured
CVRGRGRMAGSV (The protein was designed and synthesized) [SEQ ID NO: 10] | induced osteoblastic marker enzyme alkaline phosphatase | 
ERFAGNRNQLQ (The protein was designed and synthesized) [SEQ ID NO: 13] | induced osteoblastic marker enzyme alkaline phosphatase | 
ESHCLLGISCVL (The protein was designed and synthesized) [SEQ ID NO: 6, osteopontin-like peptide] | induced osteoblastic marker enzyme alkaline phosphatase | cellular ATP amounts / cell growth, 120 hours [2]: induced cell growth; alkaline phosphatase (AP) activity, 120 hours [3]: production of osteogenic marker AP
GCGKERGRRALK (The protein was designed and synthesized) [SEQ ID NO: 15] | induced osteoblastic marker enzyme alkaline phosphatase | 
GEN/cyclic: biotinylated cyclic ESHCLLGISCVL (SEQ ID NO: 6), three mini-PEG repeats, synthesized by GEN (disulfide 4-10 (inferred); also: biotin, three mini-PEG repeats, attachment end not given here) |  | cellular ATP amounts / cell growth, 120 hours [2]: stimulated ATP production and cellular growth; alkaline phosphatase (AP) activity, 120 hours [3]: induced greater alkaline phosphatase activity than the controls
GEN/linear: biotinylated linear ESHCLLGISCVL (SEQ ID NO: 6), three mini-PEG repeats, synthesized by GEN (cysteine pairing not given here; also: biotin, three mini-PEG repeats, attachment end not given here) |  | cellular ATP amounts / cell growth, 120 hours [2]: stimulated ATP production and cellular growth; cellular ATP amounts / cell growth, 120 hours ([2]; listed as linear peptides synthesized by GEN): greater ATP amounts than those in wells treated with any of the other peptides; alkaline phosphatase (AP) activity, 120 hours [3]: induced greater alkaline phosphatase activity than the controls
GGLGSVGWYWA (The protein was designed and synthesized) [SEQ ID NO: 14] | induced osteoblastic marker enzyme alkaline phosphatase | 
GKIHRHRGQAVE (The protein was designed and synthesized) [SEQ ID NO: 3] | induced osteoblastic marker enzyme alkaline phosphatase | 
GQERLWAFRWVP (The protein was designed and synthesized) [SEQ ID NO: 16] | induced osteoblastic marker enzyme alkaline phosphatase | 
HIRQMPVRAGLS (The protein was designed and synthesized) [SEQ ID NO: 4] | induced osteoblastic marker enzyme alkaline phosphatase | 
ITRGELATVRRS (The protein was designed and synthesized) [SEQ ID NO: 11] | induced osteoblastic marker enzyme alkaline phosphatase | 
LRLGVGMGRTC (The protein was designed and synthesized) [SEQ ID NO: 12] | induced osteoblastic marker enzyme alkaline phosphatase | 
NEP/cyclic: biotinylated cyclic ESHCLLGISCVL (SEQ ID NO: 6), 15 atom-PEG, synthesized by NEP (disulfide 4-10 (inferred); also: biotin, 15 atom-PEG, attachment end not given here) |  | cellular ATP amounts / cell growth, 120 hours [2]: stimulated ATP production and cellular growth; alkaline phosphatase (AP) activity, 120 hours [3]: induced greater alkaline phosphatase activity than the controls
NEP/linear: biotinylated linear ESHCLLGISCVL (SEQ ID NO: 6), 15 atom-PEG, synthesized by NEP (cysteine pairing not given here; also: biotin, 15 atom-PEG, attachment end not given here) |  | cellular ATP amounts / cell growth, 120 hours [2]: stimulated ATP production and cellular growth; alkaline phosphatase (AP) activity, 120 hours [3]: induced greater alkaline phosphatase activity than the controls
QQLQQNVILET (The protein was designed and synthesized) [SEQ ID NO: 7] | induced osteoblastic marker enzyme alkaline phosphatase | 
RGVLRVGTGRSE (The protein was designed and synthesized) [SEQ ID NO: 17] | induced osteoblastic marker enzyme alkaline phosphatase | 
RNWRMSRRGGM (The protein was designed and synthesized) [SEQ ID NO: 9] | induced osteoblastic marker enzyme alkaline phosphatase | 
RPALRLGLIGPS (The protein was designed and synthesized) [SEQ ID NO: 19] | induced osteoblastic marker enzyme alkaline phosphatase | 
RQGVGSNGXIQK [SEQ ID NO: 5] | induced osteoblastic marker enzyme alkaline phosphatase | 
RRGQDRGHEPK (The protein was designed and synthesized) [SEQ ID NO: 22] | induced osteoblastic marker enzyme alkaline phosphatase | 
RSKLVEFRTTG (The protein was designed and synthesized) [SEQ ID NO: 8] | induced osteoblastic marker enzyme alkaline phosphatase | 
SKALRGVGSVAS (The protein was designed and synthesized) [SEQ ID NO: 21] | induced osteoblastic marker enzyme alkaline phosphatase | 
TRTSVDAPIRX [SEQ ID NO: 20] | induced osteoblastic marker enzyme alkaline phosphatase | 
VFLRGNNSGGRS (The protein was designed and synthesized) [SEQ ID NO: 2] | induced osteoblastic marker enzyme alkaline phosphatase | AP expression compared with control cells contacted with empty vector ([1]; clone-contacted cells): an order of magnitude more AP expression

From patent US8815807B2, “Peptides and peptide compositions having osteoinductive activity” (President and Fellows of Harvard College, priority 2008, dated 2014)
